In general, IC50 refers to the point on the concentration scale where inhibition reaches its midpoint.

The target of this test is T1, Calpain-1 catalytic subunit (Homo sapiens, UniProt P07384).
T1 sequence (P07384 whole entry): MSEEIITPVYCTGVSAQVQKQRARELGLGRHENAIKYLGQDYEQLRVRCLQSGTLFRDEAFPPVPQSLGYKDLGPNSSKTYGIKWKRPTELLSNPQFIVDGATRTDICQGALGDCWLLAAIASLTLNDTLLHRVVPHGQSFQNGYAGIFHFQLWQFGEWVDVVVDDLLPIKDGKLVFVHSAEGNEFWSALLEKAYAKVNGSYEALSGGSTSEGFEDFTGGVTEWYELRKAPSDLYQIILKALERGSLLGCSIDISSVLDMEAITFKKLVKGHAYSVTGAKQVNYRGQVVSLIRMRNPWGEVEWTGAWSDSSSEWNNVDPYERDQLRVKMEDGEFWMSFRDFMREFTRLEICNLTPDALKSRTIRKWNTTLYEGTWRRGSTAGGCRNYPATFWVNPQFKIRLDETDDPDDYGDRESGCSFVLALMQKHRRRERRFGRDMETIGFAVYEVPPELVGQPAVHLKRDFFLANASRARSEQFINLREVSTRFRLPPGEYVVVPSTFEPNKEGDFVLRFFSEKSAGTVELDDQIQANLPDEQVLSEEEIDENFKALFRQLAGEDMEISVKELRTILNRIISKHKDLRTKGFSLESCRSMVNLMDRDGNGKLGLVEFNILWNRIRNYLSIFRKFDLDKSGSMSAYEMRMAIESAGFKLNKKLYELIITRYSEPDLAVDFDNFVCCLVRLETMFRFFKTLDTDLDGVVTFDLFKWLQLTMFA
Kind of test: Inhibitory activity evaluated against recombinant human calpain 1.

Residues, ends and D or L forms follow the SMILES beside them. *: point of attachment. Cbz = O=C(OCc1ccccc1)*; OtBu = CC(C)(C)O*

For the compound `CC(=O)N[C@@H](CC(C)C)C(=O)N[C@@H](CC(C)C)C(=O)N[C@H](C=O)CC(C)C`, the IC50 worked out at 15 nM.

With `CC(C)C[C@@H](C=O)NC(=O)[C@H](CC(C)C)NC(=O)OCC1c2ccccc2-c2ccccc21`, the IC50 came to 11 nM.

Regarding `CC(C)C[C@@H](C=O)NC(=O)CCNC(=O)OCc1ccccc1`, the IC50 is above 10000 nM.

Turning to `CC(=O)N[C@@H](CC(C)C)C(=O)N[C@H](C=O)CC(C)C`, the IC50 amounted to 130 nM.

For the compound `CC(C)C[C@@H](C=O)NC(=O)[C@H](CC(C)C)NC(=O)[C@H](CC(C)C)NC(=O)[C@H](Cc1c[nH]cn1)NC(=O)OCc1ccccc1` (Cbz-HLLL-aldehyde), the IC50 turned out to be 17 nM.

Regarding `CC(C)C[C@@H](C=O)NC(=O)[C@H](Cc1c[nH]c2ccccc12)NC(=O)[C@H](CC(C)C)NC(=O)OCc1ccccc1` (Cbz-Leu-Trp-Leu-aldehyde), the IC50 was determined as 45 nM.

In the case of `CC(C)C[C@@H](C=O)NC(=O)[C@H](CC(C)C)NC(=O)OCc1ccc([N+](=O)[O-])cc1`, the 50% inhibitory concentration (IC50) was found to be 8 nM.

For `CC(C)C[C@@H](C=O)NC(=O)[C@H](CC(C)C)NC(=O)[C@H](CCC(=O)OC(C)(C)C)NC(=O)OCc1ccccc1` (Cbz-Glu(OtBu)-Leu-Leu-aldehyde), the IC50 is 25 nM.

In the case of `CC(C)C[C@H](NC(=O)OCc1ccccc1)C(=O)NCC=O` (Cbz-Leu-Gly-aldehyde), the IC50 was 300 nM.
